# Data reported in patent publication US4680285A, “Treatment of malignant tumors with 2-(β-D-ribofuranosylthiazole-4-carboxamide related compounds” (priority 1985, dated 1987).
# Entries after “also recorded” stand apart in the source; their conditions may differ. Like-named read-outs stand apart in the source and are kept apart here.
# Legend:
# L-1210 lymphoid leukemia = L-1210 lymphoid leukemia in vivo, mean survival (Example 11); parameters: species or system CD2 F1 male mice; details: for Percent Treated Animals Control Animals / Treated Group Survival Time (mean): saline
# Excerpt: For Example 9a and 9b, CD2 F1 male mice were used and challenged with L-1210 lymphoid leukemia. […] The test period was for thirty days. Test results are expressed as T/C as per Example 5.
# In both the control groups and the drug treated groups in Examples 9a and 9b, the test animals were inoculated on day zero IP with 10^6 seed cells of L-1210 lymphoid leukemia. For Example 9a, drug treatment was started on day one and compound 1 given once daily for nine days. Day five was utilized as the cutoff date for death attributable to toxicity of the drug. […] Efficacy of treatment was determined by comparing mean survival time of drug treated animals with mean survival time of the control animals and is expressed as percentage increase of treated animals/control animals (T/C) as per Example 5.
# The compound test dosage levels are as noted in tables 7a and 7b below for Example 11a and 11b respectively. In these examples, thirty-six control animals were used and six test animals each at the drug dose levels as is shown in tables 7a and 7b. Saline was used as the drug vehicle.
# For both the control groups and the drug test groups, tumors were induced by IP inoculation of tumor seed cells on day zero followed by initiation of drug treatment on day one wherein compound 3 was given once daily for 5 days. Test results are expressed as T/C as per example 5.
# malignant tumors [1] = experiment: antitumor activity in vivo (general statements); details: summary statements
# malignant tumors [2] = details: known from literature; cited from earlier work
# viruses = details: cited from earlier work
# [3] = system: P388 lymphocytic leukemia; assay type: in vivo, CD2 F1 female mice; details: for Percent Treated Animals/Control Animals / Treated Group Survival Time (mean): nine days; for Treated Group Survival Time (mean): control 10.2
# Excerpt: Compound 2, 2-(2,3,5-tri-O-acetyl-β-D-ribofuranosyl)thiazole-4-carboxamide was screened in a manner similar to that shown in Example 5, however, the tumor system used as the test tumor was P388 lymphocytic leukemia. 10^6 seed cells were used to initiate the tumor in both the control group and the drug treated group of animals. The same strain of mice was used except female mice were substituted for males. Test results were based on mean survival time and are expressed as T/C percentages (treated animals/control animals) as per Example 5.
# In the drug treated animals, treatment was initiated one day after tumor inoculation and the drug was given at the dose levels noted below in table 2. Drug treatment was for nine days and drug toxicity, as in Example 5, was measured on day six.
# Average day of death for the control group was 10.2 days whereas at the lowest level of drug treatment the treated animals survived for more than 15 days. As with Example 5, 125% increase in longevity of treated animals over control animals was taken as indicative of positive drug response.
# [4] = system: P388 lymphocytic leukemia; experiment: P388 lymphocytic leukemia in vivo, median survival, 30-day test (Examples 7 and 8); parameters: species or system CD2 F1 female mice; details: for Percent Treated Animals/Control Animals / Treated Group Survival Time (median): Ex. 7a/8, saline with tween/80; for Treated Group Survival Time (median): control 12.6
# Method: For examples 7 and 8, CD2 F1 female mice were used and challenged with P388 lymphocytic leukemia tumors. […] The test period was for thirty days in both Examples 7 and 8.
# For Examples 7 and 8, as well as Examples 9 and 10 below, any animal of the drug treated group which survived beyond the end of the testing period was then evaluated and placed in one of three groups. The first group was designated as cured, meaning the animal was successfully cured of the tumor. The second group designation was no-takes, meaning survival of the animal was considered to be due to failure of tumor implant. The remaining group was designated as tumor survivors meaning the animals lived beyond the test cut-off date but could not be classified as either cured or no-takes.
# For both Examples 7 and 8, thirty animals were used as the control group and six animals each were used at each dose level indicated in tables 3 and 4 below in the drug treated groups. In both Examples 7 and 8, for both the control group and the drug treated groups, tumors were induced by IP inoculation of tumor seed cells on day zero followed by initiation of drug treatment on day one. For both Examples 7a and 8, saline with tween/80 was used as the drug vehicle. For Examples 7b and 7c, water was used as the drug vehicle.
# In both the control group and the drug treated group in Examples 7 and 8, the test animals were inoculated on day zero IP with 10^6 seed cells of P388 lymphocytic leukemia. In both Examples 7 and 8, treatment of the drug group was started on day one and the drug was given IP once daily for nine days. Day six was utilized as the cut-off data for death attributable to toxicity of the drug. […] Efficacy of treatment was determined by comparing median survival time of the drug treated animals compared to median survival time of the control animals, and is expressed as percentage increase of treated animals/control animals (T/C) as per Example 5.
# In this example drug treated animals were injected IP with the dose level noted in Table 3 below. Six animals were treated at each dose level. No control animals survived beyond day 18 with a median death date of day 12.6.
# This examples was performed as per Example 7a at dose levels as noted in table 3b below. A survivor at both the 700 and 800 mg/Kg level was judged as cured. No controls survived beyond day 12 and the mean death day of the control group was day 11.
# This example was run as per Example 7a above at dose levels noted in Table 3c below. All controls were dead by day 14 with a mean death day of day 11.9. At the 500 mg/Kg level, one animal was judged as a cure.
# Compound 2, 2-(2,3,5-tri-O-acetyl-β-D-ribofuranosyl)thiazole-4-carboxamide was tested as per Example 7a above at dose levels noted in Table 4 below. No controls survived beyond day 18 with an average death date of day 12.6.
# [5] = system: type 1 herpes simplex virus; details: cited from earlier work
# [6] = system: type 3 parainfluenza virus; details: cited from earlier work
# type 3 rhinovirus = details: cited from earlier work
# virus = details: cited from earlier work
compound,measurement,setting,value
"NC(=O)c1csc([C@@H]2O[C@H](COP(=O)(O)O)[C@@H](O)[C@H]2O)n1 [Compound 3, 2-(5-O-Phosphoryl-β-D-Ribofuranosyl)thiazole-4 Carboxamide]",Percent Treated Animals Control Animals,"L-1210 lymphoid leukemia; Ex. 11a, 50 mg/Kg once daily x5",136%
same,Treated Group Survival Time (mean),"L-1210 lymphoid leukemia; Ex. 11a, 50 mg/Kg once daily x5, control 8.3",11.3 days
same,Percent Treated Animals Control Animals,"L-1210 lymphoid leukemia; Ex. 11a, 100 mg/Kg once daily x5",186%
same,Treated Group Survival Time (mean),"L-1210 lymphoid leukemia; Ex. 11a, 100 mg/Kg once daily x5, control 8.3",15.5 days
same,Percent Treated Animals Control Animals,"L-1210 lymphoid leukemia; Ex. 11a, 200 mg/Kg once daily x5",259%
same,Treated Group Survival Time (mean),"L-1210 lymphoid leukemia; Ex. 11a, 200 mg/Kg once daily x5, control 8.3",21.5 days
same,Percent Treated Animals Control Animals,"L-1210 lymphoid leukemia; Ex. 11a, 400 mg/Kg once daily x5",183%
same,Treated Group Survival Time (mean),"L-1210 lymphoid leukemia; Ex. 11a, 400 mg/Kg once daily x5, control 8.3",15.2 days
same,Percent Treated Animals Control Animals,"L-1210 lymphoid leukemia; Ex. 11a, 800 mg/Kg once daily x5",196%
same,Treated Group Survival Time (mean),"L-1210 lymphoid leukemia; Ex. 11a, 800 mg/Kg once daily x5, control 8.3",16.3 days
same,Percent Treated Animals Control Animals,"L-1210 lymphoid leukemia; Ex. 11b, 50 mg/Kg once daily x5",128%
same,Treated Group Survival Time (mean),"L-1210 lymphoid leukemia; Ex. 11b, 50 mg/Kg once daily x5, control 10.1",13.0 days
same,Percent Treated Animals Control Animals,"L-1210 lymphoid leukemia; Ex. 11b, 100 mg/Kg once daily x5",121%
same,Treated Group Survival Time (mean),"L-1210 lymphoid leukemia; Ex. 11b, 100 mg/Kg once daily x5, control 10.1",12.3 days
same,Percent Treated Animals Control Animals,"L-1210 lymphoid leukemia; Ex. 11b, 200 mg/Kg once daily x5",145%
same,Treated Group Survival Time (mean),"L-1210 lymphoid leukemia; Ex. 11b, 200 mg/Kg once daily x5, control 10.1",14.7 days
same,Percent Treated Animals Control Animals,"L-1210 lymphoid leukemia; Ex. 11b, 400 mg/Kg once daily x5",155%
same,Treated Group Survival Time (mean),"L-1210 lymphoid leukemia; Ex. 11b, 400 mg/Kg once daily x5, control 10.1",15.7 days
same,Percent Treated Animals Control Animals,"L-1210 lymphoid leukemia; Ex. 11b, 600 mg/Kg once daily x5",160%
same,Treated Group Survival Time (mean),"L-1210 lymphoid leukemia; Ex. 11b, 600 mg/Kg once daily x5, control 10.1",16.2 days
same,activity against L-1210 lymphoid leukemia,L-1210 lymphoid leukemia; Examples 11a and 11b,active against L-1210 lymphoid leukemia
same,drug toxicity,"L-1210 lymphoid leukemia; Examples 11a and 11b, 50-800 mg/Kg",No drug toxicity was noted
same,antitumor activity,malignant tumors [1],effective in vivo antitumor agents
NC(=O)c1ncn([C@@H]2O[C@H](COP(=O)(O)O)[C@@H](O)[C@H]2O)n1 [RIBAVIRIN 5' monophosphate],antitumor activity,malignant tumors [2],inactive as antitumor compounds
"NC(=O)c1ncn([C@@H]2O[C@H](CO)[C@@H](O)[C@H]2O)n1 [RIBAVIRIN, reference compound]",in vitro antiviral activity,viruses,active in vitro antiviral agent
same,antitumor activity,malignant tumors [2],no significant antitumor activity
"CC(=O)OC[C@H]1O[C@@H](c2nc(C(N)=O)cs2)[C@H](OC(C)=O)[C@@H]1OC(C)=O [Compound 2, 2-(2,3,5-Tri-O-Acetyl-β-D-Ribofuranosyl)thiazole-4-Carboxamide]",Percent Treated Animals/Control Animals,[3]; 50 mg/Kg IP,150%
same,Treated Group Survival Time (mean),[3]; 50 mg/Kg IP,15.3 days
same,Percent Treated Animals/Control Animals,[3]; 100 mg/Kg IP,176%
same,Treated Group Survival Time (mean),[3]; 100 mg/Kg IP,18.0 days
same,Percent Treated Animals/Control Animals,[3]; 200 mg/Kg IP,179%
same,Treated Group Survival Time (mean),[3]; 200 mg/Kg IP,18.3 days
same,survival of treated animals,"[3]; lowest level of drug treatment, control 10.2 days",more than 15 days
same,Percent Treated Animals/Control Animals,[4]; 12.5 mg/Kg IP once daily x9,110%
same,Treated Group Survival Time (median),[4]; 12.5 mg/Kg IP once daily x9,13.7 days
same,Percent Treated Animals/Control Animals,[4]; 25 mg/Kg IP once daily x9,113%
same,Treated Group Survival Time (median),[4]; 25 mg/Kg IP once daily x9,14.3 days
same,Percent Treated Animals/Control Animals,[4]; 50 mg/Kg IP once daily x9,121%
same,Treated Group Survival Time (median),[4]; 50 mg/Kg IP once daily x9,15.3 days
same,Percent Treated Animals/Control Animals,[4]; 100 mg/Kg IP once daily x9,145%
same,Treated Group Survival Time (median),[4]; 100 mg/Kg IP once daily x9,18.3 days
same,Percent Treated Animals/Control Animals,[4]; 200 mg/Kg IP once daily x9,150%
same,Treated Group Survival Time (median),[4]; 200 mg/Kg IP once daily x9,19.0 days
same,Percent Treated Animals/Control Animals,[4]; 400 mg/Kg IP once daily x9,161%
same,Treated Group Survival Time (median),[4]; 400 mg/Kg IP once daily x9,20.3 days
same,surviving animals judged as no-take,"[4]; Ex. 7a/8, 50 mg/Kg, thirty days",one surviving animal was judged as a no-take
same,activity against P388 lymphocytic leukemia,"[4]; Examples 7 and 8, multiple dose",active antitumor agents; also recorded: active against P388 lymphocytic leukemia
same,DN 2 (Decision Network) criteria of the National Cancer Institute,[4]; P388,successfully passed
same,antitumor activity,malignant tumors [1],effective antitumor agent when injected intraperitoneally
same,in vitro antiviral activity,[5],only moderate activity
same,in vitro antiviral activity,[6],negative
same,in vitro antiviral activity,type 3 rhinovirus,negative
same,number of deaths of test animals vs placebo control animals,virus; in vivo antiviral tests,equal to or exceeded the number of deaths of the placebo control animals
same,in vivo antiviral activity,virus; in vivo,negative
